Laboratory results: article PMC9239272 (mBio, 2022)

What was measured:
P168G SARS2 M^pro = P168G SARS2 M^pro (Severe acute respiratory syndrome coronavirus 2, UniProt P0DTD1, P3431G); type: biochemical, SARS-CoV-2
SARS2 M^pro P168G [1] = type: cell-based, SARS-CoV-2
SARS2 M^pro P168G [2] = type: cell-based, SARS-CoV-2; remark: listed apart in the source
SARS2 M^pro M49I = type: cell-based, SARS-CoV-2
SARS2 M^pro M49D = type: cell-based, SARS-CoV-2
SARS2 M^pro Q189E = type: cell-based, SARS-CoV-2
P168S SARS2 M^pro = P168S SARS2 M^pro (Severe acute respiratory syndrome coronavirus 2, UniProt P0DTD1, P3431S); type: biochemical, SARS-CoV-2
SARS2 M^pro P168S [3] = type: cell-based, SARS-CoV-2
SARS2 M^pro Q189N = type: cell-based, SARS-CoV-2
SARS2 M^pro P168S [4] = type: cell-based, SARS-CoV-2; remark: listed apart in the source
[5] = test system: SARS2 H132 (Omicron) M^pro; type: cell-based, SARS-CoV-2

| Molecule | lower IC50 than wild-type Mpro (P168G SARS2 M^pro) | eGFP signal localization compared with wild-type construct (SARS2 M^pro P168G [1]) | average increase in luciferase signal over wild type (SARS2 M^pro P168G [2]) | effect of amino acid change on inhibition (SARS2 M^pro P168G [2]) | effect of amino acid change on inhibition (SARS2 M^pro M49I) | effect of amino acid change on inhibition (SARS2 M^pro M49D) | effect of amino acid change on inhibition (SARS2 M^pro Q189E) | lower IC50 than wild-type Mpro (P168S SARS2 M^pro) | eGFP signal localization compared with wild-type construct (SARS2 M^pro P168S [3]) | effect of amino acid change on inhibition (SARS2 M^pro Q189N) | average increase in luciferase signal over wild type (SARS2 M^pro P168S [4]) | effect of amino acid change on inhibition (SARS2 M^pro P168S [4]) | sensitivity of Omicron (P132H) Mpro [5] | decrease of inhibitor efficacy versus wild type (SARS2 M^pro M49D) | decrease of inhibitor efficacy versus wild type (SARS2 M^pro Q189N) |
| --- | --- | --- | --- | --- | --- | --- | --- | --- | --- | --- | --- | --- | --- | --- | --- |
| CC(C)(C)NC(=O)N[C@H](C(=O)N1C[C@H]2[C@@H]([C@H]1C(=O)NC(CC1CCC1)C(=O)C(N)=O)C2(C)C)C(C)(C)C (stereo partly shown) [boceprevir] | approximately 10 fold | increase in membrane-tethered cytosolic eGFP signal | 4 fold | hypersensitivity | slight resistance | slight resistance | slight resistance | approximately 10 fold | increase in membrane-tethered cytosolic eGFP signal | slight resistance | 4 fold | hypersensitivity |  |  |  |
| CC(C)(C)[C@H](NC(=O)C(F)(F)F)C(=O)N1C[C@H]2[C@@H]([C@H]1C(=O)N[C@H](C#N)C[C@@H]1CCNC1=O)C2(C)C [nirmatrelvir] |  |  |  |  |  |  |  |  |  |  |  |  | retains sensitivity |  |  |
| GC376 |  |  |  | minimal effects | minimal effects |  | minimal effects |  |  |  |  | minimal effects |  | 2.1 fold | 1.8 fold |
